Experimental data published in patent US20210388012A1, “METHODS AND COMPOSITIONS FOR PRODRUG FORMS OF SPECTINOMYCIN AND SPECTINAMIDE ANALOGS” (priority 2018, published 2021).
≈ marks a conversion by molar mass, not a printed value. Where two headings read alike, the source gives them in different places.

How the values were obtained:
[1] = Single ascending maximum tolerated dose study in rat; assay type: in vivo; settings: female, Sprague-Dawley, rat, in vivo, iv
Method: Several compounds were assessed in single ascending maximum tolerated studies. The compounds assessed were 1810; 3408, a prodrug form of compound 1810; 1599, a chloro homologue of compound 1810; and gentamicin, an antimicrobial associated with ototoxicity. The study was carried out in female Sprague-Dawley rats (n=3 per group). All the drug solutions were prepared in water and PLASMA-LYTE A (50:50; […] was obtained from Baxter Healthcare Corporation, Deerfield, Ill.). Each group of rats were fasted overnight with access to water aJ libitum and a fixed volume (2 mL) of drug-containing solution was administered via the jugular vein catheter. Food was withheld for 3 h post dosing. Different phases of the study were classified on five different speeds of i.v, administration; Phase 1: 5 sec, Phase 2: 30 sec, Phase 3: 5 min, Phase 4: 15 min, Phase 5: 30 min. In the first and second phases, a set of predefined dose levels: 10, 25, 50, 75, 100, 150, 300, 350, 400, 450 and 500 mg/kg. Escalation to the next higher dose was conditional upon absence of signs of acute toxicity following the immediate lower dose over a 24 h period. All animals were monitored by visual inspection focused on focus on changes in skin, fur, eyes, and also respiratory, circulatory, autonomic and central nervous systems, along with somatomotor activity and behavior pattern, including tremors, convulsions, salivation, diarrhea, lethargy, sleep and coma. A dose level was deemed an MTD if […] of acute toxicity were observed and that dose was chosen for the second phase of the study where the process was repeated to determine a toxic dose. For third, fourth and fifth phases, dosing solution was infused by a Instech tethering system (Instech Laboratories Inc., Plymouth Meeting, Pa.) where the animal is freely moving within its cage, the catheter connection is held in place by a vascular access harness and a swivel system, and the drug administration is performed via a Harvard Apparatus programmable syringe pump. After dosing, the tether was removed immediately after completion of the infusion and the catheter was flushed with (100 μL) PlasmaLyte A. Surviving animals from the previous dose with no signs of toxicity were re-used in either phases of these studies upon allowing a one day drug washout period.

[2] = Pharmacokinetic study in rat; assay type: in vivo, Sprague-Dawley rats; settings: male, Sprague-Dawley, in vivo, iv, 10 mg/kg
Method: LC-MS Method 1. Quantitative determination of the amount of a disclosed compound present in blood, plasma, or urinary can be determined by LC-MS/MS methods. Briefly, a suitable method involves use of calibrants (0.976, 1.95, 3.91, 7.81, 15.63, 31.25, 62.5, 125, 250, 500, 1000 ng/mL) were in sample matrix (e.g., rat plasma, blood or urine). A separate solution of disclosed compound (independent of calibrants) is used to prepare quality controls. Appropriate volumes of working solutions are added to the sample matrix to yield the final concentrations of 1, 50, 1000 ng/mL. Linearity for calibrants in duplicate is assessed by subjecting the spiked concentrations and the respective peak areas to least-square linear regression analysis with and without intercepts, and a weighted least-square regression (1/x or 1/x^2). The lowest limit of quantitation (LLOQ) in the standard curve measured with acceptable accuracy and precision for a disclosed compound from rat plasma has been previously established as 0.976 ng/mL for a representative compound, 1810. All samples are precipitated by the addition of 4-volumes (100 μL) of IS, 1369 (10 ng/mL) in methanol to a volume (25 μL) of plasma/urine test sample. The samples are vortexed (Fisher scientific, USA) for 30 sec and centrifuged at 10,000×g for 10 min at 4° C. and the supernatants are collected for LC-MS/MS analysis. Chromatographic separation is carried out using a Shimadzu Nexera XR (LC-20ADXR) liquid chromatograph (Shimadzu Corporation, USA) consisting of two pumps, online degasser, system controller and an auto sampler. Mobile phase consisting of a) water with 1.6% nonafluoropentanoic acid and 0.7% formic acid b) 90% acetonitrile with 0.8% nonafluoropentanoic acid and 0.35% formic acid can be used at a flow rate of 0.5 rnLirnin in gradient mode. A Waters® Symmetry ® 3.5μ C8, 50×2.1 mm column (Waters, Milford, Mass.) is used for the separation. Samples (5 μL) are injected on column and the eluate is provided directly to an API 5500 triple quadruple mass spectrometer (Applied Biosystems, Foster City, Calif.) equipped with a turbospray ion source operated in the positive ion mode. The optimized multiple reactions monitoring (MRM) conditions for 3408 (549.2A207.1), 1810 (469.2^207.1) and IS (418.3^207.1) are monitored with a declustering potential of 45 V and collision energy of 25 eV. Data are acquired and processed with Analyst software version 1.6.2 (Applied Biosystems, Foster City, Calif.).
Pharmacokinetic assessment of the disclosed compounds can be determined in a rat model as described herein. Briefly, catheterized male Sprague-Dawley rats from Harlan Bioscience (Indianapolis, Ind.), weighing 200-250 g, are kept at a 12 h light/dark cycle with access to food and water ad libitum. The procedures are approved by the Institutional Animal Care and Use Committee of the University of Tennessee Health Science Center. Formulations of a disclosed compound are prepared in water (50%) and PlasniaLyte A (50%). Test compound can be administered either via intravenous route (10 mg/kg) via femoral vein catheter with the study conducted using a group of 6 rats. Blood (250 μL) was collected via the jugular vein catheter at 0.08, 0.25, 0.5, 0.75, 1, 1.5, 2, 4, 6, 8, 10, 24 and 48 h after drug administration. Plasma was immediately separated by centrifugation (6,000×g for 10 min at 4° C.) and stored at −70° C. until analysis. The plasma concentration was determined as described herein above in LC-MS Method 1, and plasma concentration-time courses were fitted to a non-compartmental model using Phoenix WinNonlin 7.0 (Certara L. P., Princeton, NJ). Area under the concentration-time profile curve (AUC) was calculated by the log trapezoidal rule by log-linear regression and extrapolated to infinity by addition of the value Ct/λZ, where Ct is the concentration at the last time point, and λZ the terminal slope (determined by linear regression) of the log concentration-time curve. […]

[3] = system: M. tuberculosis Erdman (TMCC107); test: Murine model of acute TB infection; assay type: in vivo; settings: BALB/c mice, subcutaneous injection 400 mg/kg daily, 12 consecutive days
[4] = target: Mycobacterium smegmatis 70S bacterial ribosomes; test: Ribosomal inhibition assay (luciferase-based protein synthesis inhibition); assay type: biochemical; settings: purified M. smegmatis 70S ribosomes, firefly luciferase mRNA
Method: In vitro activity was also assessed using a ribosomal inhibition assay. Briefly, luciferase-based protein synthesis inhibition assays were performed in translation reaction as described previously (Bruell, et al. Biochemistry. 2008 47 (34), 8828-8839), using purified Mycobacterium smegmatis 70S bacterial ribosomes and firefly luciferase mRNA prepared in vitro using T7 RNA polymerase. IC50 values represent the drug concentration that inhibits luciferase activity by 50%.

M. tuberculosis H37Rv = test: Minimum inhibitory concentration (MIC), microbroth dilution; assay type: cell-based; settings: Mycobacterium tuberculosis, 168 h; M. tuberculosis H37Rv, 7 days, 37° C.; read-out: MIC (H37Rv)

For `CN[C@@H]1[C@H](O)[C@H](NC)[C@H]2O[C@]3(O)[C@H](O[C@@H]2[C@H]1O)O[C@H](C)C[C@H]3NC(=O)Cc1ccc(O)cn1` [Compound 1810, 2-(5-hydroxypyridin-2-yl)-N-((2R,4R,4aS,5aR,6S,7S,8R,9S,9aR,10aS)-4a,7,9-trihydroxy-2-methyl-6,8-bis(methylamino)decahydro-2H-benzo[b]pyrano[2,3-e] [1,4]dioxin-4-yl)acetamide], the MTD at 24 h [1] was 200 to 350 mg/kg, the MTD at 24 h ([1]; female Sprague-Dawley rats, 5 second IV bolus, read-out: MTD) was 200 mg/kg and the MTD at 24 h ([1]; female Sprague-Dawley rats, 30 second IV bolus, read-out: MTD) was 200 mg/kg. For the same compound, the MTD at 24 h ([1]; female Sprague-Dawley rats, 5 minute IV infusion, read-out: MTD) was 350 mg/kg, the MTD at 24 h ([1]; female Sprague-Dawley rats, 15 minute IV infusion, read-out: MTD) was > 500 mg/kg and the AUC [2] was 22000 ng·h/mL. It also gave a CL [2] of 7.72 mL/min/kg, a Cmax [2] of 47000 ng/mL and a Vss [2] of 0.494 L/kg. The t½ [2] was 23.5 min, the “Efficacy in mouse model of acute tuberculosis infection (lung CFU, FIG. 1)” value [3] was “similarly active” and the “IC50 (M. smegmatis)” value [4] was 0.84 µg/mL (≈ 1.79 µM). The MIC (M. tuberculosis H37Rv) was 0.8 µg/mL (≈ 1.71 µM).
